According to patent US8496964B2, “Controlled release micro-capsule for osteogenic action” (Council of Scientific & Industrial Research, priority 2009, dated 2013):

How the values were obtained:
[1] = In vitro Kaempferol release in SGF and SIF; assay type: physicochemical; details: SIF compared with SGF
From the text: For in-vitro release study the ultra sink condition was maintained. Briefly, Dried pure Kaempferol dispersed in PBS, the Kaempferol-loaded CaCO3 MP (CaCO3-Kaempferol) and the encapsulated Kaempferol-loaded microcapsules suspension in same concentration were taken in centrifuge tube in one ml phosphate buffer saline (PBS). Two different pH solutions were used as the release medium [a simulated gastric fluid (SGF) (pH 1.2), prepared by diluting a concentrated HCl solution] and [a simulated intestinal fluid (SIF) (pH 7.4), prepared with 0.02M phosphate buffer saline]. The sample was maintained under horizontal agitation at 37° C. in vortex. At different time intervals the dispersion was centrifuged at 10,000 rpm for 5 min. and the supernatant was assayed for Kaempferol using RP-HPLC method at 370 nm against reagent blank. After each sampling the medium was replaced with fresh buffer. It was also ensured that no extra tiny particles are left in the supernatant.

[2] = in vivo; details: rat, po, 1 mg/kg
Description: Kaempferol (free; 1 mg/kg) in 20% ethanol was orally administered by gavage. Following administration, the rats were sacrificed at 0.25, 0.5, 1.0, 1.5, 2.0, 2.5, 3.0, 4.0, 6.0, and 24 h to obtain serum and bone marrow. After protein precipitation, concentration of Kaempferol in serum and bone marrow was determined by HPLC. […] Similarly formulated (LbL based assembly) Kaempferol (equivalent to 1 mg/kg of free Kaempferol) was administered orally using gavage. Following administration, the rats were sacrificed at 0.25, 0.5, 1.0, 1.5, 2.0, 2.5, 3.0, 4.0, 6.0, and 24 h to obtain serum and bone marrow. After protein precipitation concentration of Kaempferol in serum and bone marrow was determined by HPLC. The mean serum pharmacokinetics profile (for the three rats at each time point) of kaempferol on administration of formulation was calculated over 24 h. Rapid absorption of Kaempferol is evident, which appeared to peak after 1 h and can be detected for as long as 24 h post administration.

[3] = test system: ovariectomized (OVx) rats; assay: Bone mineral density (BMD) by DEXA after one month of oral administration; assay type: in vivo, female Sprague Dawley rats
Description: (§1) The study was conducted in accordance with current legislation on animal experiments [Institutional Animal Ethical Committee (IAEC)] at C.D.R.I. Forty female Sprague Dawley rats weighing 200 g were taken for the study (n=10/group). Thirty rats were bilaterally ovariectomized (OVx). The other 10 rats were exposed to a sham surgical procedure. All rats were individually housed at 21° C., in 12-h/12-h light-dark cycles. Normal chow diet and water was provided ad libitum. The rats were left for 4 weeks to develop osteopenia. The animals were divided into 4 groups Sham, Ovaticetomized group (Ovx), Ovx+Kaempferol (Ovaticetomized group treated with Kaempferol) and Ovx+F (Ovaticetomized group treated with formulation of Kaempferol). Animals were treated for one month then sacrificed and BMD was determined.
BMD was determined by DEXA (Dual Energy X-ray Absorptiometry) using a Hologic QDR 4500A x-ray densitometer with high-resolution small animal software. BMD of the excised bones (left femurs, tibia, and lumbar vertebrae) were studied at the end of experiment. Left femurs were placed on their posterior surfaces, and BMD of the sub-regions was assessed. Distal and proximal regions corresponded to the cancellous bone and central to the cortical bone. Results are given in g/cm^2 as represented in FIG. 5.

[4] = test system: ovariectomized (OVx) rats; assay: Trabecular bone strength, Bone Strength Tester TK-252C; assay type: in vivo, female Sprague Dawley rats; details: one month treatment
Description: as §1
This test predominantly measured trabecular bone strength using a Bone Strength Tester TK-252C (Muromachi Kikai Co. Ltd., Tokyo, Japan). The bone strength for all the groups was measured as reported in this invention.

[5] = test system: OVx rats; details: cited from earlier work
[6] = one month oral treatment, excised bone
[7] = compared with OVx group treated with vehicle

- Kaempferol saturation solubility [1]: much higher
- AUC(0-t) [2]: 1420 ng·h/mL
- Tmax [2]: 30 min
- time after which bone marrow level went below the detection limit [2]: 2.5 h
- time after which serum level went below the detection limit [2]: 6 h
- time of Cmax in bone marrow [2]: 90 min
- Cmax ([2]; Cmax of Kaempferol in bone marrow): 194 ng/mL
- Cmax ([2]; Cmax of Kaempferol in serum): 583 ± 229 ng/mL
SMILES: O=c1c(O)c(-c2ccc(O)cc2)oc2cc(O)cc(O)c12 [Kaempferol]
- Bone Mineral Density, Femur diaphysis [3, 6]: 0.2658 ± 0.01 g/cm^2
- Bone Mineral Density, Femur global [3, 6]: 0.262 ± 0.01 g/cm^2
- Bone Mineral Density, Tibia Head [3, 6]: 0.2835 ± 0.015 g/cm^2
- Bone Mineral Density, Vertebrae global [3, 6]: 0.1847 ± 0.013 g/cm^2
- trabecular BMD over OVx+vehicle group ([3]; one month treatment): significantly higher
- bone biomechanical strength over OVx+vehicle group [4]: significantly higher
- Bone strength ([4]; trabecular bone): 209.4 ± 21.52 N/mm
- bone sparing action [5]: exerts bone sparing action
- estrogen agonistic effect at the uterine level [5]: no estrogen agonistic effect
- adipocyte differentiation from bone marrow cells [5, 7]: inhibition
- osteoprogenitor cells [5, 7]: increase
